In the test the target is T1, human RXFP1 (Homo sapiens, UniProt Q9HBX9).
T1 construct: expressed in transfected cells
T1 sequence (Q9HBX9 1-757): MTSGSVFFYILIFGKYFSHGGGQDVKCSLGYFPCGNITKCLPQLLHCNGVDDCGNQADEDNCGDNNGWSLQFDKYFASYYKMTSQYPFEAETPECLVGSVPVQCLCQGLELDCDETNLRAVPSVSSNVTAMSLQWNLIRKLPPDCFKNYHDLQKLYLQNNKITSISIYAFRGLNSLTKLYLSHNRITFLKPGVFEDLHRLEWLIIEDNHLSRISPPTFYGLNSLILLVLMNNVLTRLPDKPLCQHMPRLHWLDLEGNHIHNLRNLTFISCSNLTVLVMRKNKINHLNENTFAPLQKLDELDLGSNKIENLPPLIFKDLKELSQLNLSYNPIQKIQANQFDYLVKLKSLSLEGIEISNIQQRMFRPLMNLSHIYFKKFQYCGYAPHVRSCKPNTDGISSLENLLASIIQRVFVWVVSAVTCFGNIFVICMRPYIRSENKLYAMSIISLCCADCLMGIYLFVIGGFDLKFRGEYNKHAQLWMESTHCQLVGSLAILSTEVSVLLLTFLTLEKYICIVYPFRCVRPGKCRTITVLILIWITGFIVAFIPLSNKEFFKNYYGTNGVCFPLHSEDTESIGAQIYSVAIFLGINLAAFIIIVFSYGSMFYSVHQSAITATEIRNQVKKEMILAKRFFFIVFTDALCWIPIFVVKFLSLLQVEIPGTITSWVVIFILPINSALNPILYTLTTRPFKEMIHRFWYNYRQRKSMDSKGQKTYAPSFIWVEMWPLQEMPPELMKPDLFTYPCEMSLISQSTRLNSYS
Put plainly: human RXFP1 (hRXFP1) HEK293 cAMP assay (HTRF). The format is cell-based. Conditions: HEK293 cells stably expressing human RXFP1, 30 min at room temperature. As for the experimental part:
RXFP1 Cyclic Adenosine Monophosphate (cAMP) Assays. […] Cells were dissociated and suspended in assay buffer. The assay buffer was HBSS buffer (with calcium and magnesium) containing 20 mM HEPES, 0.05% BSA, and 0.5 mM IBMX. Cells (3000 cells per well, except 1500 cell per well for HEK293 cells stably expressing human RXFP1) were added to 384-well Proxiplates (Perkin-Elmer). Cells were immediately treated with test compounds in DMSO (2% final) at final concentrations in the range of 0.010 nM to 50 µM. Cells were incubated for 30 min at room temperature. The level of intracellular cAMP was determined using the HTRF HiRange cAMP assay reagent kit (Cisbio) according to manufacturer's instructions. Solutions of cryptate conjugated anti-cAMP and d2 fluorophore-labelled cAMP were made in a supplied lysis buffer separately. Upon completion of the reaction, the cells were lysed with equal volume of the d2-cAMP solution and anti-cAMP solution. […] The potency and activity of a compound to […] cAMP production was then determined by fitting to a 4-parametric logistic equation from a plot of cAMP level versus compound concentrations.
Consider `COc1ncc(C2=NOC3CC(CO)CC23)cc1C(=O)N[C@H]1[C@@H](C(=O)N[C@H](C)C2(C)CC2)[C@H]2CC[C@@H]1/C2=C\C(F)(F)F` (stereo partly drawn) [Example 115, 5-(5-(hydroxymethyl)-3a,5,6,6a-tetrahydro-4H-cyclopenta[d]isoxazol-3-yl)-2-methoxy-N-((1R,2R,3S,4R,Z)-3-(((R)-1-(1-methylcyclopropyl)ethyl)carbamoyl)-7-(2,2,2-trifluoroethylidene)bicyclo[2.2.1]heptan-2-yl)nicotinamide], for which the midpoint of the response, the EC50, lay at 2.1 nM.
`COc1ccc(-c2cc(C(=O)O)ccc2F)nc1C(=O)N[C@@H]1C2CCC(C2=C(C)C)[C@@H]1C(=O)Nc1ccc(F)c(C(F)(F)F)c1` (stereo partly drawn) [Example 23, 4-Fluoro-3-(6-{[(2R,3S)-3-{[4-fluoro-3-(trifluoromethyl)phenyl]carbamoyl}-7-(propan-2-ylidene)bicyclo [2.2.1]heptan-2-yl]carbamoyl}-5-methoxypyridin-2-yl)benzoic acid] had an EC50 of 2400 nM.
The compound `COc1ncc(C2=NO[C@@H]3C[C@H](CO)CN23)cc1C(=O)N[C@@H]1C2CCC(/C2=C/C2CC2)[C@@H]1C(=O)Nc1ccc(F)c(C(F)(F)F)c1` (stereo partly drawn) [Example 132, N-((1R,2R,3S,4R,Z)-7-(cyclopropyl-methylene)-3-((4-fluoro-3-(trifluoromethyl)phenyl)carbamoyl)bicyclo[2.2.1]heptan-2-yl)-5-((6S,7aR)-6-(hydroxymethyl)-5,6,7,7a-tetrahydropyrrolo [1,2-d][1,2,4]oxadiazo 1-3-yl)-2-methoxynicotinamide] came in with an EC50 of 1.8 nM.
On to `COc1ncc(C2=NOC3CC(C(O)C(F)(F)F)CC23)cc1C(=O)N[C@H]1[C@@H](C(=O)Nc2ccc(F)c(C(F)(F)F)c2)[C@H]2CC[C@@H]1/C2=C\C1CCCC1` (stereo partly drawn) [Example 173, N-[(1R,2R,3S,4R, 7Z)-7-(cyclopentyl-methylidene)-3-{[4-fluoro-3-(trifluoromethyl)phenyl]carbamoyl}bicyclo[2.2.1]heptan-2-yl]-2-methoxy-5-[5-(2,2,2-trifluoro-1-hydroxyethyl)-3aH,4H,5H,6H, 6aH-cyclopenta[d][1,2]oxazol-3-yl]pyridine-3-carboxamide], for which the EC50 stood at 0.6 nM.
`COc1cc2c(cc1C(=O)N[C@H]1[C@@H](C(=O)Nc3ccc(F)c(C(F)(F)F)c3)[C@H]3CC[C@@H]1/C3=C\C1CC1)CCN(CCCO)C2` [Example 90, N-((1R,2R,3S,4R,Z)-7-(cyclopropylmethylene)-3-((4-fluoro-3-(trifluoromethyl)phenyl)carbamoyl)bicyclo[2.2.1]heptan-2-yl)-2-(3-hydroxypropyl)-7-methoxy-1,2,3,4-tetrahydroisoquinoline-6-carboxamide] returned an EC50 of 2400 nM.
The result for `COc1ncc(C2=NOC3OCCCC23)cc1C(=O)N[C@H]1[C@@H](C(=O)Nc2ccc(F)c(C(F)(F)F)c2)[C@H]2CC[C@@H]1/C2=C\C1CCCC1` (stereo partly drawn) [Example 125, N-((1R,2R, 3S,4R,Z)-7-(cyclopentyl-methylene)-3-((4-fluoro-3-(trifluoromethyl)phenyl)carbamoyl)bicyclo[2.2.1]heptan-2-yl)-2-methoxy-5-(3a,5,6,7a-tetrahydro-4H-pyrano[3,2-d]isoxazol-3-yl)nicotinamide] reads 3.6 nM; that for `COc1ncc(C2=NO[C@@H]3C[C@H](CO)CN23)cc1C(=O)N[C@@H]1C2CCC(/C2=C/C2CC2)[C@@H]1C(=O)N[C@H](C)C1(C)CC1` (stereo partly drawn) [Example 106, N-((1R,2R,3S,4R,Z)-7-(cyclopropyl-methylene)-3-(((R)-1-(1-methylcyclopropyl)ethyl)carbamoyl)bicyclo[2.2.1]heptan-2-yl)-5-((6S,7aR)-6-(hydroxymethyl)-5,6,7,7a-tetrahydropyrrolo [1,2-d][1,2,4]oxadiazo 1-3-yl)-2-methoxynicotinamide], 1.8 nM.
`COc1ncc(C2=NOC3CC(CO)CC23)cc1C(=O)N[C@H]1[C@@H](C(=O)N[C@H](C)C2(C)CC2(F)F)[C@H]2CC[C@@H]1/C2=C\C(F)(F)F` (stereo partly drawn) [Example 118, N-((1R,2R,3S,4R,Z)-3-(((1R)-1-(2,2-difluoro-1-methylcyclopropyl)ethyl)carbamoyl)-7-(2,2,2-trifluoroethylidene)bicyclo[2.2.1]heptan-2-yl)-5-(5-(hydroxymethyl)-3a,5,6,6a-tetrahydro-4H-cyclopenta[d]isoxazol-3-yl)-2-methoxynicotinamide]: the response was half-maximal at 4 nM (EC50).
With `COc1ncc(C2=NOC3CC(O)CC23)cc1C(=O)N[C@H]1[C@@H](C(=O)Nc2ccc(F)c(C(F)(F)F)c2)[C@H]2CC[C@@H]1/C2=C\C1CCC1` (stereo partly drawn) [Example 117, N-((1R,2R,3S,4R,Z)-7-(cyclobutyl-methylene)-3-((4-fluoro-3-(trifluoromethyl)phenyl)carbamoyl)bicyclo[2.2.1]heptan-2-yl)-5-(5-hydroxy-3a,5,6,6a-tetrahydro-4H-cyclopenta[d]isoxazol-3-yl)-2-methoxynicotinamide], it took 3.5 nM to reach a half-maximal effect (EC50).
For the compound `COc1ncc(C2=NOC3CC(C)(CO)CC23)cc1C(=O)N[C@H]1[C@@H](C(=O)N[C@H](C)C2(C)CC2)[C@H]2CC[C@@H]1/C2=C\C1CC1` (stereo partly drawn) [Example 177, N-[(1R,2R,3S,4R, 7Z)-7-(cyclopropyl-methylidene)-3-{[(1R)-1-(1-methylcyclo-propyl)ethyl]carbamoyl}bicyclo[2.2.1]heptan-2-yl]-5-[5-(hydroxymethyl)-5-methyl-3aH,4H,5H,6H, 6aH-cyclopenta[d][1,2]oxazol-3-yl]-2-methoxypyridine-3-carboxamide], it took 3.3 nM to reach a half-maximal effect (EC50).
Consider `COc1ncc(C2=NOC3CC(C(OC(=O)NC4CCC4)C(F)(F)F)CC23)cc1C(=O)N[C@@H]1C2CCC(/C2=C/C2CC2)[C@@H]1C(=O)Nc1ccc(F)c(C(F)(F)F)c1` (stereo partly drawn) [Example 171, 1-[3-(5-{[(2R,3S,7Z)-7-(cyclopropyl-methylidene)-3-{[4-fluoro-3-(trifluoromethyl)phenyl]carbamoyl}bicyclo[2.2.1]heptan-2-yl]carbamoyl}-6-methoxypyridin-3-yl)-3aH,4H,5H,6H, 6aH-cyclopenta[d][1,2]oxazol-5-yl]-2,2,2-trifluoroethyl N-cyclobutyl-carbamate], for which the EC50 stood at 7.9 nM.
For `CCC(O)C1CC2ON=C(c3cnc(OC)c(C(=O)N[C@H]4[C@@H](C(=O)Nc5ccc(F)c(C(F)(F)F)c5)[C@H]5CC[C@@H]4/C5=C\C4CC4)c3)C2C1` (stereo partly drawn) [Example 113, N-((1R,2R,3S,4R,Z)-7-(cyclopropyl-methylene)-3-((4-fluoro-3-(trifluoromethyl)phenyl)carbamoyl)bicyclo[2.2.1]heptan-2-yl)-5-(5-(1-hydroxypropyl)-3a,5,6,6a-tetrahydro-4H-cyclopenta[d]isoxazol-3-yl)-2-methoxynicotinamide], the EC50 worked out at 4.3 nM.
For the compound `O=C(N[C@@H]1C2CCC(/C2=C/C(F)(F)F)[C@@H]1C(=O)Nc1ccc(F)c(C(F)(F)F)c1)c1cc(Br)cc2c1OCC2` (stereo partly drawn) [Example 58, 5-bromo-N-[(2R,3S,7Z)-3-{[4-fluoro-3-(trifluoromethyl)phenyl]carbamoyl}-7-(2,2,2-trifluoro-ethylidene)bicyclo[2. 2.1]heptan-2-yl]-2,3-dihydro-1-benzofuran-7-carboxamide], the EC50 was 3000 nM.
`COc1cc2c(cc1C(=O)N[C@H]1[C@@H](C(=O)Nc3ccc(F)c(C(F)(F)F)c3)[C@H]3CC[C@@H]1/C3=C\C1CC1)CNCC2` [Example 83, N-((1R,2R,3S,4R,Z)-7-(cyclopropylmethylene)-3-((4-fluoro-3-(trifluoromethyl)phenyl)carbamoyl)bicyclo[2.2.1]heptan-2-yl)-6-methoxy-1,2,3,4-tetrahydroisoquinoline-7-carboxamide] had an EC50 of 2400 nM.
The compound `COc1cnc(-c2cc(C(=O)O)ccc2F)cc1C(=O)N[C@@H]1C2CCC(/C2=C/C(F)(F)F)[C@@H]1C(=O)Nc1ccc(F)c(C(F)(F)F)c1` (stereo partly drawn) [Example 30, 4-Fluoro-3-(4-{[(2R,3S,7Z)-3-{[4-fluoro-3-(trifluoromethyl)phenyl]carbamoyl}-7-(2,2,2-trifluorocthylidene)bicyclo[2. 2.1]heptan-2-yl]carbamoyl}-5-methoxypyridin-2-yl)benzoic acid] came in with an EC50 of 109 nM.
`O=C(N[C@@H]1C2CCC(/C2=C/C(F)(F)F)[C@@H]1C(=O)Nc1ccc(F)c(C(F)(F)F)c1)c1nc(Br)cnc1OCCO` (stereo partly shown) [Example 48] had an EC50 of 880 nM.
